# Source: patent publication US11059795B2, “Androgen receptor modulators and methods for their use” (ESSA Pharma, Inc., priority 2018, dated 2021)
# System: not listed separately
# Assay: Hepatocyte stability assay, mouse hepatocytes
# Format: in vitro ADME
# Details: mouse, cryopreserved hepatocytes, 1 μM compound, 0.5 million cells/mL, 37° C., read-out: MH +/− NADPH: Clint (μL/min/million cells)
# From the text: The […] of in vitro intrinsic clearance (Clint) for drug candidates in the early discovery stage is common practice in the pharmaceutical industry. The Clint values of drug candidates can help to confirm whether metabolism is the main clearance pathway when it is compared with the total body clearance in vivo. Hepatocytes are among the routinely used in vitro systems for measuring clearance. Hepatocytes have been reported to retain most of the phase I and phase II metabolic activities, and therefore, it is a useful tool to estimate the intrinsic clearance for potential drug candidates.
# Metabolic stability of testing compound were be evaluated using human and mouse hepatocytes and can also be use rat, mouse, or other animal hepatocytes to predict intrinsic clearance. Cryopreserved hepatocytes were removed from the liquid nitrogen tank and thawed in a 37° C. water bath. As soon as the cells pulled away from the vial wall, they were decanted into 48 ml of warm HT medium. Cells were centrifuged for four minutes at 420 rpm (50 g). After removing the supernatant, pellet was re-suspended in warm DMEM medium. Cell density was counted by a hemacytometer.
# The assay was carried out in 96-well microtiter plates. Compounds were incubated for 0, 60, 120, and 180 minutes at 37° C. with hepatocytes. Reaction mixtures (50 μL) contained a final concentration of 1 μM test compound, 0.5 million cells/mL hepatocytes in the DMEM medium. At each of the time points (for example, 0, 1, 2, and 3 hours), 200 μL of quench solution (100% acetonitrile with 0.1% formic acid) with internal standard was transferred to each well. Midazolam was included as a positive control to verify assay performance. Plates were sealed and centrifuged at 4° C. for 15 minutes at 4000 rpm. The supernatant is transferred to fresh plates for LC/MS/MS analysis.
# Summarized conditions (customizable): [Compound]=[…], Positive control: midazolam and/or naloxone, [Hepatocyte]=0.5 million cells/Ml, time=0, 60, 120, and 180 min, t=37° C.
# (§1) All samples were analyzed on LC/MS/MS using an AB Sciex API 4000 instrument, coupled to a Shimadzu LC-20AD LC Pump system. Analytical samples were separated using a Waters Atlantis T3 dC18 reverse phase HPLC column (20 mm×2.1 mm) at a flow rate of 0.5 mL/min. The mobile phase consisted of 0.1% formic acid in water (solvent A) and 0.1% formic acid in 100% acetonitrile (solvent B).
# The extent of metabolism was calculated as the disappearance of the test compound, compared to the 0-min control reaction incubations. Initial rates were calculated for the compound concentration and used to determine t½ values and subsequently, the intrinsic clearance, Clint. Clint=(0.693)(1/t½(min))(mL incubation/million cells)
row,SMILES,hepatocyte CLint at 1 μM
1,"C[C@@H](Oc1ccc(C(C)(C)c2cc(Cl)c(OCCCl)c(C#N)c2)cc1)c1ccnc(NS(C)(=O)=O)n1 (single isomer, unassigned) [Compound A169]",< 4 µL/min/1e6 cells
2,Cc1cc(C(C)(C)c2ccc(OC(C)c3scnc3S(C)(=O)=O)cc2)cc(C#N)c1OCCCl (stereo not drawn) [Compound A70],4 to 18 µL/min/1e6 cells
3,CC(C)(c1ccc(OCc2[nH]cnc2S(C)(=O)=O)cc1)c1cc(Cl)c(OCCCl)c(Cl)c1 [Compound A71],4 to 18 µL/min/1e6 cells
4,CC(Oc1ccc(C(C)(C)c2cc(Cl)c(OCCCl)c(C#N)c2)cc1)c1ncoc1S(C)(=O)=O (stereo not drawn) [Compound A79],≥ 18 µL/min/1e6 cells
5,Cc1oc(S(C)(=O)=O)nc1COc1ccc(C(C)(C)c2cc(Cl)c(OCCCl)c(C#N)c2)cc1 [Compound A80],≥ 18 µL/min/1e6 cells
6,Cc1nc(S(C)(=O)=O)oc1COc1ccc(C(C)(C)c2cc(Cl)c(OCCCl)c(C#N)c2)cc1 [Compound A81],≥ 18 µL/min/1e6 cells
7,CC(Oc1ccc(C(C)(C)c2cc(Cl)c(OCCCl)c(C#N)c2)cc1)c1coc(S(C)(=O)=O)n1 (stereo not drawn) [Compound A85],≥ 18 µL/min/1e6 cells
8,Cc1cc(C(C)(C)c2ccc(OCc3csc(S(C)(=O)=O)n3)cc2)cc(C#N)c1OCCCl [Compound A86],≥ 18 µL/min/1e6 cells
9,CC(Oc1ccc(C(C)(C)c2cc(Cl)c(OCCCl)c(C#N)c2)cc1)c1ocnc1S(C)(=O)=O (stereo not drawn) [Compound A87],≥ 18 µL/min/1e6 cells

# System: not listed separately
# Assay: Microsomal stability assay, mouse liver microsomes
# Format: in vitro ADME
# Details: mouse, liver microsomes, pH 7.4, mouse liver microsomes, 1 μM compound, 0.5 mg/mL protein, 37° C.; read-out: MLM +30/− NADPH: Clint (μL/min/mg protein)
# Description: (§2) Microsomal stability assay is a widely used in vitro model to characterize the metabolic conversion by phase I enzymes, such as cytochrome P450 (CYP) enzymes. Since metabolism is known to be highly variable in different species, microsomal stability assay is commonly run in multiple species. Metabolic stability of testing compound can be evaluated using human, rat, mouse, or other animal liver or intestine microsomes to predict intrinsic clearance.
# (§3) The assay was carried out in 96-well microtiter plates at 37° C. Reaction mixtures (25 μL) contained a final concentration of 1 μM test compound, 0.5 mg/mL liver microsomes protein, and 1 mM NADPH and/or 1 mM UDPGA (with alamethicin) in 100 mM potassium phosphate, pH 7.4 buffer with 3 mM MgCl2. The incubation was done with N=1, but duplicate incubation at each time point can be prepared if necessary. At each of the time points (for example, 0, 15, 30, and 60 minutes), 150 μL of quench solution (100% acetonitrile with 0.1% formic acid) with internal standard was transferred to each well. Besides the zero minute controls, mixtures containing the same components except the NADPH can also be prepared as the negative control. Verapamil was included as a positive control to verify assay performance. Plates were sealed, vortexed, and centrifuged at 4° C. for 15 minutes at 4000 rpm. The supernatant is transferred to fresh plates for LC/MS/MS analysis.
# (§4) Summarized conditions: [Compound]=[…], [LM]=0.5 mg/mL, [NADPH]=1 mM and/or [UDPGA]=1 mM, Buffer=100 mM Potassium Phosphate, pH 7.4 with 3 mM MgCl2, Time=0, 15, 30, and 60 min, and Temperature=37° C.
# as §1
# (§5) The extent of metabolism is calculated as the disappearance of the test compound, compared to the 0-min time incubation. Initial rates are calculated for the compound concentration and used to determine half-life (t½) values and subsequently, the intrinsic clearance (Clint). Clint=(0.693)(1/t½ (min))(g of liver/kg of body weight)(mL incubation/mg of microsomal protein)(45 mg of microsomal protein/g of liver weight)
row,SMILES,microsomal CLint at 1 μM
1,"C[C@@H](Oc1ccc(C(C)(C)c2cc(Cl)c(OCCCl)c(C#N)c2)cc1)c1ccnc(NS(C)(=O)=O)n1 (single isomer, unassigned) [Compound A169]",< 12 µL/min/mg
2,Cc1cc(C(C)(C)c2ccc(OC(C)c3scnc3S(C)(=O)=O)cc2)cc(C#N)c1OCCCl (stereo not drawn) [Compound A70],≥ 48 µL/min/mg
3,CC(C)(c1ccc(OCc2[nH]cnc2S(C)(=O)=O)cc1)c1cc(Cl)c(OCCCl)c(Cl)c1 [Compound A71],< 12 µL/min/mg
4,CC(Oc1ccc(C(C)(C)c2cc(Cl)c(OCCCl)c(C#N)c2)cc1)c1ncoc1S(C)(=O)=O (stereo not drawn) [Compound A79],≥ 48 µL/min/mg
5,Cc1oc(S(C)(=O)=O)nc1COc1ccc(C(C)(C)c2cc(Cl)c(OCCCl)c(C#N)c2)cc1 [Compound A80],12 to 48 µL/min/mg
6,Cc1nc(S(C)(=O)=O)oc1COc1ccc(C(C)(C)c2cc(Cl)c(OCCCl)c(C#N)c2)cc1 [Compound A81],≥ 48 µL/min/mg
7,CC(Oc1ccc(C(C)(C)c2cc(Cl)c(OCCCl)c(C#N)c2)cc1)c1coc(S(C)(=O)=O)n1 (stereo not drawn) [Compound A85],≥ 48 µL/min/mg
8,Cc1cc(C(C)(C)c2ccc(OCc3csc(S(C)(=O)=O)n3)cc2)cc(C#N)c1OCCCl [Compound A86],12 to 48 µL/min/mg
9,CC(Oc1ccc(C(C)(C)c2cc(Cl)c(OCCCl)c(C#N)c2)cc1)c1ocnc1S(C)(=O)=O (stereo not drawn) [Compound A87],12 to 48 µL/min/mg

# Target: T1, androgen receptor (AR) (Homo sapiens, UniProt P10275, T878A)
# T1 construct: LNCaP cells were transiently transfected with the PSA (6.1 kb)-luciferase reporter for 24 h; endogenous in cells; host or cells: LNCaP
# T1 sequence (P10275 1-920 T878A): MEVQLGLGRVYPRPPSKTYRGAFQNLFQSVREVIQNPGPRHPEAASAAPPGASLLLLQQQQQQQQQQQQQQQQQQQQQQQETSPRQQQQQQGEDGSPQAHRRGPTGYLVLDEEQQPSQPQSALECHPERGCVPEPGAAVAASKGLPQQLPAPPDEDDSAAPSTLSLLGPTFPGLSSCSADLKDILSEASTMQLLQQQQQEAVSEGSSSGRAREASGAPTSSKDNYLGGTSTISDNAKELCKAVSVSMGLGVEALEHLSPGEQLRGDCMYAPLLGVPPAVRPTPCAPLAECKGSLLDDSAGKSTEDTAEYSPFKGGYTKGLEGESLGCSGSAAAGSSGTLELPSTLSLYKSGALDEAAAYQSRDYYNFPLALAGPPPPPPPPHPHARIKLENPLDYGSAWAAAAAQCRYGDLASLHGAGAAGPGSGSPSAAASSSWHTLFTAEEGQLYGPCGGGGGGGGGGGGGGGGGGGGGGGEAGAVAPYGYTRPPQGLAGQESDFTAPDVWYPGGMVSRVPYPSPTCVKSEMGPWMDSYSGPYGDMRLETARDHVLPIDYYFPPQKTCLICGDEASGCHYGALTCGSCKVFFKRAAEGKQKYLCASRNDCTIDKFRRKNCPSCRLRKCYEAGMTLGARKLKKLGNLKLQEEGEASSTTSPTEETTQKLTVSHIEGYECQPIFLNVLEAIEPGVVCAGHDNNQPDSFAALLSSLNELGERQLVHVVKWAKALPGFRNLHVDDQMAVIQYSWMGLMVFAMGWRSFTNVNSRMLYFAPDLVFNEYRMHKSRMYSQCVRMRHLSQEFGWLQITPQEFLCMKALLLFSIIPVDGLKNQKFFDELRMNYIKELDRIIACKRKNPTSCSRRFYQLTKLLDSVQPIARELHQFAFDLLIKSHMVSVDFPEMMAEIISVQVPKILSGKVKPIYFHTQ
# Assay: Androgen-induced PSA (6.1 kb)-luciferase reporter assay in LNCaP cells
# Format: cell-based
# Details: LNCaP cells transfected with PSA (6.1 kb)-luciferase reporter, R1881 1 nM, 24 h; read-out: PSA-Luc IC50 Range
# Description: The PSA (6.1 kb)-luciferase reporter contains functional AREs (androgen response elements) to which AR binds in response to androgen to induce luciferase activity.
# Cells were lysed using Passive Lysis Buffer (Promega) and then collected into V-bottom 96-well tissue culture plates. Lysates were centrifuged at 4° C. for 5 minutes at 3000 rpm. To measure luminescence of LNCaP cell lysates the Firefly Luciferase Assay System (Promega) was employed, according to manufacturer's protocol. Relative luminescence units (RLU) in cell lysates were detected for 10 seconds using Promega GloMax-Multi Detection Luminometer (Promega). Values were normalized to protein content. GraphPad Prism graphing software was used to calculate IC50 values.
# Comparisons between treatment and control groups were compared using Two-Way ANOVA with post-hoc Dunnett's and Tukey's tests. Differences were considered statistically significant at P values less than 0.05.
row,SMILES,IC50
1,"C[C@@H](Oc1ccc(C(C)(C)c2cc(Cl)c(OCCCl)c(C#N)c2)cc1)c1ccnc(NS(C)(=O)=O)n1 (single isomer, unassigned) [Compound A169]",< 0.5 µM
2,Cc1cc(C(C)(C)c2ccc(OC(C)c3scnc3S(C)(=O)=O)cc2)cc(C#N)c1OCCCl (stereo not drawn) [Compound A70],< 0.5 µM
3,CC(C)(c1ccc(OCc2[nH]cnc2S(C)(=O)=O)cc1)c1cc(Cl)c(OCCCl)c(Cl)c1 [Compound A71],0.5 to 2 µM
4,CC(Oc1ccc(C(C)(C)c2cc(Cl)c(OCCCl)c(C#N)c2)cc1)c1ncoc1S(C)(=O)=O (stereo not drawn) [Compound A79],< 0.5 µM
5,Cc1oc(S(C)(=O)=O)nc1COc1ccc(C(C)(C)c2cc(Cl)c(OCCCl)c(C#N)c2)cc1 [Compound A80],< 0.5 µM
6,Cc1nc(S(C)(=O)=O)oc1COc1ccc(C(C)(C)c2cc(Cl)c(OCCCl)c(C#N)c2)cc1 [Compound A81],< 0.5 µM
7,CC(Oc1ccc(C(C)(C)c2cc(Cl)c(OCCCl)c(C#N)c2)cc1)c1coc(S(C)(=O)=O)n1 (stereo not drawn) [Compound A85],< 0.5 µM
8,Cc1cc(C(C)(C)c2ccc(OCc3csc(S(C)(=O)=O)n3)cc2)cc(C#N)c1OCCCl [Compound A86],< 0.5 µM
9,CC(Oc1ccc(C(C)(C)c2cc(Cl)c(OCCCl)c(C#N)c2)cc1)c1ocnc1S(C)(=O)=O (stereo not drawn) [Compound A87],0.5 to 2 µM

# System: not listed separately
# Assay: Microsomal stability assay, human liver microsomes
# Format: in vitro ADME
# Details: pH 7.4, 1 μM compound, 0.5 mg/mL protein, 37° C., read-out: HLM +/− NADPH: Clint (μL/min/mg protein)
# Description: as §2, §3, §4, §1, §5
row,SMILES,microsomal CLint at 1 μM
1,"C[C@@H](Oc1ccc(C(C)(C)c2cc(Cl)c(OCCCl)c(C#N)c2)cc1)c1ccnc(NS(C)(=O)=O)n1 (single isomer, unassigned) [Compound A169]",< 12 µL/min/mg
2,Cc1cc(C(C)(C)c2ccc(OC(C)c3scnc3S(C)(=O)=O)cc2)cc(C#N)c1OCCCl (stereo not drawn) [Compound A70],12 to 48 µL/min/mg
3,CC(C)(c1ccc(OCc2[nH]cnc2S(C)(=O)=O)cc1)c1cc(Cl)c(OCCCl)c(Cl)c1 [Compound A71],12 to 48 µL/min/mg
4,CC(Oc1ccc(C(C)(C)c2cc(Cl)c(OCCCl)c(C#N)c2)cc1)c1ncoc1S(C)(=O)=O (stereo not drawn) [Compound A79],< 12 µL/min/mg
5,Cc1oc(S(C)(=O)=O)nc1COc1ccc(C(C)(C)c2cc(Cl)c(OCCCl)c(C#N)c2)cc1 [Compound A80],< 12 µL/min/mg
6,Cc1nc(S(C)(=O)=O)oc1COc1ccc(C(C)(C)c2cc(Cl)c(OCCCl)c(C#N)c2)cc1 [Compound A81],12 to 48 µL/min/mg
7,CC(Oc1ccc(C(C)(C)c2cc(Cl)c(OCCCl)c(C#N)c2)cc1)c1coc(S(C)(=O)=O)n1 (stereo not drawn) [Compound A85],< 12 µL/min/mg
8,Cc1cc(C(C)(C)c2ccc(OCc3csc(S(C)(=O)=O)n3)cc2)cc(C#N)c1OCCCl [Compound A86],12 to 48 µL/min/mg
9,CC(Oc1ccc(C(C)(C)c2cc(Cl)c(OCCCl)c(C#N)c2)cc1)c1ocnc1S(C)(=O)=O (stereo not drawn) [Compound A87],< 12 µL/min/mg
